From PubChem BioAssay (NCI)
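Values below derive from 48-hour exposures of cells grown in 96-well plates, with endpoints linearly interpolated between the two concentrations bracketing the appropriate inhibition level. TGI denotes the concentration required for complete inhibition of growth.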

Assays:
Experiment in all cases: NCI-60 cell line screen, 48 h
[1] = test system: 786-0 renal
[2] = test system: ACHN renal
[3] = test system: HCT-116 colon
[4] = test system: HCT-15 colon
[5] = test system: HL-60(TB) leukemia
[6] = test system: HOP-92 NSCLC
[7] = test system: IGROV1 ovarian
[8] = test system: KM12 colon
[9] = test system: M14 melanoma
[10] = test system: OVCAR-3 ovarian
[11] = test system: PC-3 prostate
[12] = test system: SF-295 CNS
[13] = test system: SK-MEL-2 melanoma
[14] = test system: SK-MEL-28 melanoma
[15] = test system: SK-MEL-5 melanoma
[16] = test system: U251 CNS
[17] = test system: RXF 393 renal
[18] = test system: UACC-257 melanoma
[19] = test system: LOX IMVI melanoma

Row | Compound | TGI [1] [µM] | TGI [2] [µM] | TGI [3] [µM] | TGI [4] [µM] | TGI [5] [µM] | TGI [6] [µM] | TGI [7] [µM] | TGI [8] [µM] | TGI [9] [µM] | TGI [10] [µM] | TGI [11] [µM] | TGI [12] [µM] | TGI [13] [µM] | TGI [14] [µM] | TGI [15] [µM] | TGI [16] [µM] | TGI [17] [µM] | TGI [18] [µM] | TGI [19] [µM]
1 | C=CCN1C[C@@H](C)N([C@@H](c2ccccc2)c2ccc(C(=O)N(CC)CC)cc2)C[C@@H]1C | > 100 | > 100 | > 100 | > 100 | > 100 | 89 | > 100 | > 100 | > 100 | > 100 | > 100 | > 100 | > 100 | > 100 | > 100 | > 100 | – | – | –
2 | ClCCCC1COc2ccccc2O1 (configuration not stated) | > 100 | > 100 | > 100 | > 100 | > 100 | > 100 | > 100 | – | > 100 | > 100 | > 100 | > 100 | – | > 100 | > 100 | > 100 | > 100 | > 100 | –
3 | O=C1CSC(c2ccccc2[N+](=O)[O-])N1c1ccc(-n2c(-c3ccccc3)nc3ccccc3c2=O)cc1 (configuration not stated) | > 100 | > 100 | > 100 | > 100 | > 100 | 60.2 | > 100 | > 100 | – | > 100 | > 100 | 64.3 | > 100 | > 100 | > 100 | 32.7 | – | > 100 | > 100
4 | COC(=O)C(CCSc1ccccc1)C(=O)OC | > 100 | > 100 | > 100 | > 100 | > 100 | > 100 | > 100 | > 100 | > 100 | > 100 | > 100 | > 100 | > 100 | > 100 | > 100 | > 100 | > 100 | > 100 | –
5 | COc1ccc(N2C(=O)C3c4[nH]c5cc(Cl)ccc5c4C4CCC(C(C)(C)C)CC4C3C2=O)cc1 (configuration not stated) | > 100 | > 100 | > 100 | > 100 | 69.4 | – | > 100 | > 100 | > 100 | > 100 | > 100 | > 100 | – | > 100 | > 100 | > 100 | > 100 | > 100 | –
6 | O=C1c2cscc2C(=O)c2c(OCc3ccccc3)ccc(OCc3ccccc3)c21 | > 100 | > 100 | > 100 | – | > 100 | > 100 | > 100 | > 100 | > 100 | > 100 | > 100 | > 100 | – | > 100 | > 100 | – | > 100 | > 100 | > 100
7 | COC1CC(n2ccc(=O)[nH]c2=O)OC1CO (configuration not stated) | > 100 | > 100 | > 100 | > 100 | – | > 100 | > 100 | > 100 | > 100 | > 100 | > 100 | > 100 | > 100 | > 100 | > 100 | > 100 | > 100 | > 100 | > 100
8 | N#CC1C(=O)NC2=C(CCOc3c2ccc2ccccc32)C1c1ccc(F)cc1 (configuration not stated) | 32.8 | 26.1 | 27 | > 100 | > 100 | 28.5 | 37.9 | > 100 | 68 | 40.7 | 54.8 | 42.4 | > 100 | – | 80.8 | 24.7 | 36 | > 100 | –
9 | O=C1Cc2c(-c3ccccc3)cc(-c3ccc4ccccc4c3)nc2-c2ccccc2N1 | > 100 | > 100 | > 100 | > 100 | – | > 100 | 11.9 | 28.3 | > 100 | 27.6 | 45.5 | > 100 | > 100 | > 100 | > 100 | > 100 | 13.1 | > 100 | > 100
10 | COc1cc(/C=C2/C(=O)N=C(NC(C)=O)N2C)ccc1OC(C)=O | > 100 | > 100 | > 100 | > 100 | > 100 | > 100 | > 100 | > 100 | > 100 | > 100 | > 100 | > 100 | > 100 | > 100 | > 100 | > 100 | – | > 100 | > 100
11 | COc1cc2c(cc1OC)CN1CCc3ccccc3CC1C2 (configuration not stated) | > 100 | > 100 | > 100 | > 100 | > 100 | > 100 | > 100 | > 100 | > 100 | > 100 | > 100 | > 100 | > 100 | > 100 | > 100 | > 100 | – | > 100 | > 100
12 | Cc1nc2ccc(S(=O)(=O)Nc3ccccc3Cl)cc2c(=O)n1NC(=O)CNc1ccccc1Cl | > 100 | > 100 | > 100 | > 100 | > 100 | > 100 | > 100 | > 100 | > 100 | > 100 | > 100 | > 100 | > 100 | > 100 | – | > 100 | – | > 100 | > 100
13 | O=c1c2ccccc2n2n1Cc1ccccc1C2 | > 100 | > 100 | > 100 | > 100 | > 100 | > 100 | > 100 | > 100 | – | > 100 | > 100 | > 100 | – | > 100 | > 100 | > 100 | > 100 | > 100 | > 100
14 | CC(=O)OC(C#N)CC(C)(C)/[N+]([O-])=[N+](\[O-])C(C)(C)CC(C#N)OC(C)=O (configuration not stated) | 24.7 | 24.5 | 20.9 | 25.5 | – | 27 | 24 | 28.9 | 32.2 | 40 | 37.9 | 80.8 | > 100 | 96.4 | 33.9 | 39.5 | 27.4 | 37.8 | 28.8
15 | O=C(Nn1c(-c2ccccc2)nc2ccccc2c1=O)c1ccc(O)cc1 | > 100 | > 100 | > 100 | > 100 | > 100 | > 100 | > 100 | > 100 | > 100 | > 100 | > 100 | > 100 | – | > 100 | > 100 | > 100 | > 100 | > 100 | –
16 | CC(C(=O)N1C(=O)N(C(=O)[C@H](C)C(O)c2ccccc2)[C@H](c2ccccc2)[C@H]1c1ccccc1)[C@@H](O)c1ccccc1 (some centres not stated) | 82.8 | > 100 | > 100 | > 100 | > 100 | 83.3 | 64.9 | > 100 | 61.7 | – | 83.6 | > 100 | 42.6 | > 100 | 28.1 | > 100 | – | 84.4 | –
17 | CCN(CC)CCNc1ccc2ncn3c4c(OC)ccc(=O)c4c(O)c1c23 | > 100 | > 100 | > 44.3 | > 100 | > 100 | > 62.1 | > 43.8 | > 100 | > 100 | > 100 | > 100 | > 100 | > 100 | 27.1 | > 39.6 | > 100 | 34.1 | > 100 | –
18 | Cc1ccc(Nc2cc(=O)[nH]c(=O)[nH]2)cc1CS | > 100 | > 100 | > 100 | > 100 | – | > 100 | > 100 | > 100 | > 100 | > 100 | > 100 | > 100 | > 100 | > 100 | > 100 | > 100 | > 100 | > 100 | > 100
19 | C=CCOCn1ccc(NC(=O)c2ccccc2)nc1=O | > 100 | > 100 | > 100 | > 100 | > 100 | – | > 100 | > 100 | > 100 | – | > 100 | > 100 | – | > 100 | > 100 | – | – | > 100 | > 100
20 | Cc1cn(C2CC(N=[N+]=[N-])C(C(=O)O)O2)c(=O)[nH]c1=O (configuration not stated) | > 100 | > 100 | > 100 | > 100 | > 100 | > 100 | > 100 | > 100 | > 100 | > 100 | > 100 | – | > 100 | – | > 100 | > 100 | > 100 | > 100 | –
21 | COC(=O)CCSC1=CC(=O)c2nc3ccccc3c3ccnc1c23 | 40.2 | 48.3 | 42.2 | 27.9 | > 24 | > 55.4 | 34.5 | 34.8 | 47.2 | 11.4 | 36.7 | > 100 | > 70.1 | 45.9 | > 53.5 | > 100 | 37.1 | 33 | –
